Here are results for 2 molecules from publication PMC9926489, “Chemical Optimization of Selective Pseudomonas aeruginosa LasB Elastase Inhibitors and Their Impact on LasB-Mediated Activation of IL-1β in Cellular and Animal Infection Models” (ACS Infectious Diseases, 2023).

Series [1] can be described thus: Mouse pharmacokinetics, plasma. Format: in vivo. The following applies: single 10 mg/kg IV dose; for half-life / C0 / AUC(0-t) / clearance: female, ICR (CD-1), plasma; for half-life: iv, read-out: plasma t1/2 (converted); for half-life / plasma t1/2: 10 mg/kg; for AUC(0-t): read-out: plasma AUClast; for clearance: read-out: plasma CL. How it is done: The PK parameters of compounds 12 and 16 were investigated in both plasma and lung epithelial lining fluid (ELF) after intravenous (IV) administration of compounds at 10 mg/kg in mice (Figure 4 and Table 5). […] Accordingly, these levels of lung penetration (9.5 and 5.2%, respectively) warranted the evaluation of the compounds in an animal model of lung infection using IV dosing.
Unrestrained, nonanesthetized mice (Female ICR (CD-1); Age 5–6 weeks; Size 22 ± 2 g; specific pathogen-free (SPF)) were injected IV with test article formulations via the tail vein. Animals were sacrificed by cardiac puncture under CO2 euthanasia at 0.08, 0.25, 1, 2, 4, 8, and 24 h post dosing. Blood was drawn into tubes coated with EDTA-K3, mixed gently and plasma was then harvested and kept frozen at −70 °C until further processing. To collect […] (BALF), 0.5 mL of PBS was administered once through a tracheal cannula after which about 0.2 to 0.3 mL of BALF was obtained. The BALF was kept on ice and centrifuged within 1 h of collection and the supernatant was harvested and kept frozen at −70 °C. Plasma and BALF samples were analyzed by LC-MS/MS (AB SCIEX API 3000 mass spectrometer). The apparent ELF volume of each BALF sample was estimated using urea as an endogenous marker of the ELF dilution. The urea concentrations in BALF and plasma samples were determined with the QuantiChrom Urea Assay Kit (DIUR-100) (BioAssay Systems) following the manufacturer’s protocol. For each BALF sample, the drug concentration in ELF was calculated as follows: drug concentrationELF = drug concentrationBALF × (urea concentrationplasma/urea concentrationBALF). The PK parameters of each compound after IV dosing (t1/2, C0, AUClast, and CL) were obtained from the noncompartmental analysis (NCA) of the plasma data using WinNonlin.

The target of the next series is T1, purified LasB (Pseudomonas aeruginosa, UniProt P14756).
T1 construct: The mature LasB protein is a 33 kDa metalloprotease, which is secreted from P. aeruginosa; host or cells: P. aeruginosa PAO1 (native secretion, culture supernatant)
T1 sequence (P14756 198-498): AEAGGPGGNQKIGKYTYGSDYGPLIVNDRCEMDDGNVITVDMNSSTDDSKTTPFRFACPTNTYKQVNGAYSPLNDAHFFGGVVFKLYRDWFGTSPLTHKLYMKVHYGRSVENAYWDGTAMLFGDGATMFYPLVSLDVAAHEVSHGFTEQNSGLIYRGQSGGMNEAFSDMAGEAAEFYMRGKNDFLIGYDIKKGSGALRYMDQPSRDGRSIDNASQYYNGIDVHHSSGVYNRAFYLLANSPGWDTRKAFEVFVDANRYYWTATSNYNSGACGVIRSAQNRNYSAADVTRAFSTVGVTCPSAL
The series is described as follows: Inhibition of LasB-mediated proteolysis of human serum IgG (SDS-PAGE). Format: biochemical, P. aeruginosa. The following applies: for inhibition of generation of 37 kDa IgG degradation product by LasB: at 10 μM inhibitor. The procedure:
To confirm if compounds 12 and 16 were able to inhibit this activity, human serum IgG was incubated with purified LasB in the presence of varying concentrations of inhibitors and the products analyzed by SDS-PAGE.
This protocol was adapted from Cathcart et al.[25] Briefly, 10 μg of IgG from human serum (Sigma) were incubated with 100 ng purified LasB in assay buffer (50 mM Tris-HCl pH 7.4, 2.5 mM CaCl2) for 4 h at 37 °C, with or without variable concentrations of inhibitor. Samples were then denatured and analyzed by 4–15% gradient SDS polyacrylamide gel electrophoresis (SDS-PAGE) and the gel stained using Coomassie blue. The IgG subunits are visualized as two bands at 28 kDa (light chain) and 54 kDa (heavy chain). Proteolysis by LasB results in the generation of a fragment of the heavy chain detected of approximately 37 kDa. Bands were quantified using ImageJ software, and IC50 values were determined using Prism software (GraphPad).

The test system of the next series is activated IL-1β. Nature of the series: Mouse P. aeruginosa lung infection model, activated IL-1β in lung homogenates. Format: in vivo. The following applies: C57Bl/6 mice, 10 and 30 mg/kg IV at 1 and 4 h post-infection, 24 h; p < 0.0001. The procedure:
To investigate if compounds 12 and 16 were able to engage the LasB target in vivo, in the context of a P. aeruginosa lung infection, and to determine the consequences of that inhibition, immunocompetent C57Bl/6 mice were infected intranasally with P. aeruginosa PAO1 and treated with two doses of inhibitors, 10 and 30 mg/kg, administered IV at 1 and 4 h post-infection (Figure 5A). A control group of PAO1-infected animals treated with vehicle and a group of animals infected with the isogenic ΔlasB strain were included in the study. Mice were euthanized 24 h post-infection and their lung homogenates assayed for activated mature IL-1β (using the IL-1 reporter assay) and bacterial numbers (by CFU enumeration).
Infection experiments were approved by the Institutional Animal Care and Use Committee of Emory University. To prepare the bacterial inoculum, P. aeruginosa PAO1 (or its ΔlasB derivative) was grown in Luria broth with shaking at physiologic (37 °C) temperature for 18 h to maximally express LasB (at late log phase). […] Active IL-1β was quantified by adding 100 μL of cell-free homogenate to IL-1β responsive HEK IL-1R-lux reporter cells. Activity was assayed by luminescence measured with D-luciferin substrate (Steady-Luc, Biotium) on a multimode reader (PerkinElmer) and expressed as relative luminescence units (RU). […] Statistics were calculated by ANOVA with a Dunnett post-test.

The target in the next series is T2, LasB WT (PAO1 reference) (Pseudomonas aeruginosa, UniProt P14756).
T2 construct: endogenous in cells; host or cells: P. aeruginosa strains of WT lasB genotype, culture supernatant
T2 sequence (P14756 198-498): as above
Nature of the series: LasB variant inhibition, Abz-AGLA-Nba assay with culture supernatant: WT. The series is classed as biochemical, P. aeruginosa. The source says: Compounds 12 and 16 were discovered as a result of optimizing potency against the LasB protein expressed from the wild-type (WT) reference strain P. aeruginosa PAO1. To understand the relative prevalence of the WT LasB protein versus other variants in clinical respiratory P. aeruginosa strains, the full-length lasB gene was amplified by PCR from 255 clinical isolates (obtained from CF sputum samples). […] Most changes were identified in the mature peptide, however some occurred in the propeptide domain, which could affect LasB processing (marked in italics in Table 4).
LasB inhibition assays were performed using purified LasB enzyme (1 ng/well) for compound screening or using culture supernatants (prepared as described in the ECR assay) for testing LasB variants. Hydrolysis of the fluorogenic peptide substrate 2-aminobenzoyl-Ala-Gly-Leu-Ala-4-nitrobenzylamide (Abz-AGLA-Nba; Peptide International) in 50 mM Tris-HCl (pH 7.4), supplemented with 2.5 mM CaCl2 was followed using an Envision microplate reader (PerkinElmer) at 315 nm excitation and 430 nm emission. […] IC50 values were determined from Hill plots using Dotmatics Studies ELN software. For the mechanism of inhibition studies, hydrolysis rates were measured in the presence of variable concentrations of substrate and inhibitor, and the inhibition constant (Ki) was determined using Dixon plot analysis.[31]

The IC50 is the point on the concentration scale where inhibition reaches its midpoint. Read a low IC50 as higher potency. As for `COc1cc2sc(CNC(=O)C3(CC(=O)O)Cc4ccccc4C3)nc2cc1OCCC[N+](C)(C)C` [Compound 12], in series [1], the half-life was around 6 h, the C0 stood at 92.2 µg/mL, the AUC(0-t) was 610 µg·h/mL and the clearance was determined as 0.3 mL/min/kg. Further, in series [1], the “plasma t1/2” value amounted to 6.2 h. Also, on purified LasB, the IC50 was 2590 nM and the “inhibition of generation of 37 kDa IgG degradation product by LasB” value is on record as “complete inhibition”. Also, the “decrease in activated IL-1β in lung homogenates vs PAO1-infected control group” value in the series on activated IL-1β is recorded as “up to 4 fold”. Moreover, the midpoint of inhibition at LasB WT (PAO1 reference), the IC50, lay at 222 nM.

Consider `COc1cc2sc(CNC(=O)C3(CC(=O)O)Cc4cc(F)c(F)cc4C3)nc2cc1OCCC[N+](C)(CCO)CCO` [Compound 16], for which, in series [1], the half-life was around 6 h, the C0 came to 176 µg/mL, the AUC(0-t) was determined as 517 µg·h/mL and the clearance is 0.3 mL/min/kg. Besides, the “plasma t1/2” value in series [1] was found to be 6.5 h. In addition, on purified LasB, 1290 nM corresponded to half-maximal inhibition (IC50) and the “inhibition of generation of 37 kDa IgG degradation product by LasB” value was “complete inhibition”. In addition, in the series on activated IL-1β, the “decrease in activated IL-1β in lung homogenates vs PAO1-infected control group” value is “up to 4 fold”. On LasB WT (PAO1 reference), the IC50 is 177 nM.
